10 compounds from patent US11478451B1, “Macrocyclic chlorine substituted indole derivatives” (Bayer Aktiengesellschaft, priority 2017, dated 2022) can be followed below.

In data set [1] the test system is SUDHL5 cells. Description: Antiproliferation assay (CellTiter-Glo, 72 h), SUDHL5. The conditions noted are these: IC50, median, SUDHL5, 72 h, read-out: Antiproli SUDHL5 [M] (median). The data set is classed as cell-based. The essentials:
(§1)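 Cells plated in treatment plates plus a day 0 reference plate; incubated 72 h at 37 °C; CellTiter-Glo added, 10 min incubation, luminescence read; day 0 plate read at time zero.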

Data set [2] deals with HMC-1-8 cells. Description: Antiproliferation assay (CellTiter-Glo, 72 h), HMC-1-8. The conditions noted are these: IC50, median, HMC-1-8, 72 h, read-out: Antiproli HMC-1-8 [M] median. The data set is classed as cell-based. As for the experimental part:
Assessment of the Anti-Proliferative Effect of Compounds in Different Cell Lines
The impact of compounds on the proliferation of different cell lines was assessed using the CellTiter-Glo® Luminescent Cell Viability reagent from Promega (G7573).
In parallel, cells were plated in a reference (day 0) plate for time zero determination.
Rim wells were excluded. The cells were incubated for 72 h hours in a humidified incubator at 37° C. The day 0 plate was measured by adding 30 μL/well of CTG solution (CellTiter-Glo® Luminescent Cell Viability reagent, Promega G7573) to time zero wells in the reference plate followed by a 10 minutes incubation and luminescence reading at 0.1 ms. using the PHERAstar FS microplate reader (BMG Labtech).
After 72 h incubation, the treated plates were measured in the same way as the day 0 plate mentioned above.
In general terms: Cellular ATP, detected with luciferase, serves as a proxy for viable cell number.

In data set [3] the test system is AMO-1 cells. Description: Antiproliferation assay (CellTiter-Glo, 72 h), AMO-1. The data set is classed as cell-based. As to conditions: IC50, median, AMO-1, 72 h, read-out: Antiproli AMO-1 [M] median. The essentials:
as §1

Data set [4] concerns SUDHL10 cells. Description: Induction of caspase-3/7 activity (Caspase-Glo 3/7), SUDHL10. The class given is cell-based. As to conditions: EC50, median, SUDHL10, 3 h treatment. In a few lines:
(§2)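 Caspase-3/7 activation serves as the apoptosis read-out for MCL-1 inhibition. Cells are treated with compound for 3 h at 37 °C and assayed with Caspase-Glo 3/7; values are corrected by subtracting medium-only background.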

Data set [5] deals with SUDHL10 cells. Description: Induction of cytotoxicity (CellTiter-Glo, 5 h), SUDHL10. The conditions noted are these: SUDHL10, 5 h.
Data set [6] concerns SUDHL5 cells. The data set can be described thus: Induction of cytotoxicity (CellTiter-Glo, 5 h), SUDHL5. The conditions noted are these: SUDHL5, 5 h.
For data set [7], the system named is SUDHL5 cells. The data set can be described thus: Induction of caspase-3/7 activity (Caspase-Glo 3/7), SUDHL5. The class given is cell-based. The conditions noted are these: EC50, median, SUDHL5, 3 h treatment. The essentials: as §2
Setting [8] is: Homo sapiens, SU-DHL10, 5 h, read-out: Cytotox SUDHL10 [M] (median), IC50, median.
Where [9] appears, read: Homo sapiens, SU-DHL-5, 5 h, read-out: Cytotox SUDHL5 [M] (median), IC50, median.
[10] abbreviates: read-out: Cytotox SUDHL10 [M] (median), IC50, median.

Where a name gives a salt, the structure may show the parent alone. Read-outs that look alike come from different tables or passages of the source.

As to `CCc1c2c(nn1C)CN(C)CC(F)(F)CCn1c(C(=O)O)c(CCCOc3cccc4cc(F)ccc34)c3ccc(Cl)c-2c31` (racemic) [Example 126, (rac)-4-Chloro-3-ethyl-12,12-difluoro-7-{3-[(6-fluoro-1-naphthyl)oxy]propyl}-2,14-dimethyl-10,11,12,13,14,15-hexahydro-2H-pyrazolo[3′,4′:8,9][1,6]diazacycloundecino[10,11,1-hi]indol-14-ium-8-carboxylate], the IC50 came to 8.8e-07 M in data set [1] (Homo sapiens, SU-DHL-5, 72 h); 2.2e-06 M in data set [2] (72 h); 3.7e-07 M in data set [3] (Homo sapiens, AMO1, 72 h); 8.7e-07 M in data set [5] (setting [8]); 5e-07 M in data set [6] (setting [9]). Moreover, the EC50 in data set [4] (Homo sapiens, SU-DHL10, 3 h) was determined as 0.72 µM; in data set [7] (Homo sapiens, SU-DHL-5, 3 h) it was 0.42 µM.

In the case of `CCc1c2c(nn1C)COCCC(F)(F)Cn1c(C(=O)O)c(CCCOc3cccc4cc(F)ccc34)c3ccc(Cl)c-2c31` (single isomer, unassigned) [Example 98, (+)-4-chloro-3-ethyl-11,11-difluoro-7-{3-[(6-fluoronaphthalen-1-yl)oxy]propyl}-2-methyl-2,10,11,12,13,15-hexahydropyrazolo[4′,3′:9,10][1,6]oxazacycloundecino[8,7,6-hi]indole-8-carboxylic acid], the IC50 in data set [1] (listed as 098) amounted to 2.2e-06 M; in data set [2] (listed as 098), 5.9e-06 M; in data set [3] (listed as 098), 6.9e-06 M; in data set [5] (read-out: Cytotox SUDHL10 [M] (median), IC50, median, listed as 098), 6.3e-06 M; in data set [6] (read-out: Cytotox SUDHL5 [M] (median), IC50, median, listed as 098) it was 7.3e-06 M. Further, the EC50 in data set [4] (listed as 098) was 5 µM; in data set [7] (listed as 098), 6.2 µM.

As to `CCc1c2c(nn1C)CN(C(=O)OCCC1CCOCC1)CCCCn1c(C(=O)O)c(CCCOc3cccc4cc(F)ccc34)c3ccc(Cl)c-2c31` [Example 138, (rac)-4-chloro-3-ethyl-7-{3-[(6-fluoronaphthalen-1-yl)oxy]propyl}-2-methyl-14-{[2-(oxan-4-yl)ethoxy]carbonyl}-10,11,12,13,14,15-hexahydro-2H-pyrazolo[3′,4′:8,9][1,6]diazacycloundecino[10,11,1-hi]indole-8-carboxylic acid], the IC50 in data set [1] (Homo sapiens, SU-DHL-5, 72 h) was 3.5e-07 M; in data set [2] (72 h) it was 3e-06 M; in data set [3] (Homo sapiens, AMO1, 72 h), 4.7e-07 M; in data set [5] (setting [8]), 6e-07 M; in data set [6] (setting [9]), 2.4e-07 M. The 50% effective concentration (EC50) in data set [4] (Homo sapiens, SU-DHL10, 3 h) was found to be 0.38 µM; in data set [7] (Homo sapiens, SU-DHL-5, 3 h), 0.28 µM.

Consider `CCc1c2c(nn1C)CCCN(C)CCn1c(C(=O)O)c(CCCOc3cccc4cc(F)ccc34)c3ccc(Cl)c-2c31` (racemic) [Example 115, (rac)-4-chloro-3-ethyl-7-{3-[(6-fluoronaphthalen-1-yl)oxy]propyl}-2,12-dimethyl-10,11,12,13,14,15-hexahydro-2H-pyrazolo[3′,4′:8,9][1,4]diazacycloundecino[10,11,1-hi]indole-8-carboxylic acid], for which the IC50 was 7.8e-07 M in data set [1] (Homo sapiens, SU-DHL-5, 72 h); 8e-06 M in data set [2] (72 h); 9.1e-07 M in data set [3] (Homo sapiens, AMO1, 72 h); 1.4e-06 M in data set [5] (setting [8]); 4.4e-07 M in data set [6] (setting [9]). The EC50 was determined as 1.4 µM in data set [4] (Homo sapiens, SU-DHL10, 3 h) and 0.16 µM in data set [7] (Homo sapiens, SU-DHL-5, 3 h).

Take `CCc1c2c(nn1C)COCC1(CCn3c(C(=O)O)c(CCCOc4cccc5cc(F)ccc45)c4ccc(Cl)c-2c43)CC1` [Example 110, (−)-4′-chloro-3′-ethyl-7′-{3-[(6-fluoronaphthalen-1-yl)oxy]propyl}-2′-methyl-2′,10′,11′,15′-tetrahydro-13′H-spiro[cyclopropane-1,12′-pyrazolo[4′,3′:9,10][1,6]oxazacycloundecino[8,7,6-hi]indole]-8′-carboxylic acid-N-ethylethanamine salt]: the IC50 in data set [1] (Homo sapiens, SU-DHL-5, 72 h) worked out at 2.1e-07 M; in data set [2] (72 h), 1.4e-06 M; in data set [3], 3.5e-07 M; in data set [5] (setting [10]), 2.8e-07 M. In addition, the concentration giving a half-maximal response (EC50) in data set [4] came out at 0.16 µM; in data set [7], 0.12 µM.

As to `Cc1c2c(nn1C)COCCC(F)(F)Cn1c(C(=O)O)c(CCCOc3cccc4ccccc34)c3ccc(Cl)c-2c31` (racemic) [Example 68, (rac)-4-chloro-11,11-difluoro-2,3-dimethyl-7-[3-(1-naphthyloxy)propyl]-2,10,11,12,13,15-hexahydropyrazolo[4′,3′:9,10][1,6]oxazacycloundecino[8,7,6-hi]indole-8-carboxylic acid], the IC50 in data set [1] (Homo sapiens, SU-DHL-5, 72 h) stood at 2.6e-06 M; in data set [2] (72 h), 7.9e-06 M; in data set [3] (Homo sapiens, AMO1, 72 h), 2.6e-06 M; in data set [5] (setting [8]), 3.3e-06 M. The EC50 in data set [4] (Homo sapiens, SU-DHL10, 3 h) was found to be 3.1 µM; in data set [7] (Homo sapiens, SU-DHL-5, 3 h) it was 1.4 µM.

Consider `CCc1c2c(nn1C)COCC(F)(F)CCn1c(C(=O)O)c(CCCOc3cccc4cc(F)ccc34)c3ccc(Cl)c-2c31` (single isomer, unassigned) [Example 86, (+)-4-chloro-3-ethyl-12,12-difluoro-7-{3-[(6-fluoronaphthalen-1-yl)oxy]propyl}-2-methyl-2,10,11,12,13,15-hexahydropyrazolo[4′,3′:9,10][1,6]oxazacycloundecino[8,7,6-hi]indole-8-carboxylic acid], for which the IC50 in data set [1] (listed as 086) came to 9.3e-07 M; in data set [2] (listed as 086) it was 6.4e-06 M; in data set [5] (read-out: Cytotox SUDHL10 [M] (median), IC50, median, listed as 086), 9.7e-07 M; in data set [6] (read-out: Cytotox SUDHL5 [M] (median), IC50, median, listed as 086) it was 6.3e-07 M. Moreover, the EC50 in data set [4] (listed as 086) stood at 0.62 µM; in data set [7] (listed as 086), 0.47 µM.

With `CCc1c2c(nn1C)COCC1CC1Cn1c(C(=O)O)c(CCCOc3cccc4cc(F)ccc34)c3ccc(Cl)c-2c31` (racemic) [Example 103, (rac)-3-chloro-4-ethyl-14-{3-[(6-fluoronaphthalen-1-yl)oxy]propyl}-5-methyl-5,7,9a,10,10a,11-hexahydro-9H-cyclopropa[3,4]pyrazolo[4′,3′:9,10][1,6]oxazacycloundecino[8,7,6-hi]indole-13-carboxylic acid], the IC50 in data set [1] turned out to be 5.5e-07 M; in data set [2] (72 h), 7.1e-06 M; in data set [3] it was 8.2e-07 M; in data set [5] (setting [10]), 7e-07 M; in data set [6] (read-out: Cytotox SUDHL5 [M] (median), IC50, median) it was 5.7e-07 M. This compound came in with an EC50 in data set [4] of 0.5 µM.

`CCc1c2c(nn1C)CN(CC(F)(F)F)CCCCn1c(C(=O)O)c(CCCOc3cccc4cc(F)ccc34)c3ccc(Cl)c-2c31` (racemic) [Example 61, (rac) 4-chloro-3-ethyl-7-{3-[(6-fluoronaphthalen-1-yl)oxy]propyl}-2-methyl-14-(2,2,2-trifluo-roethyl)-10,11,12,13,14,15-hexahydro-2H-pyrazolo[3′,4′:8,9][1,6]diazacycloundecino[10,11,1-hi]indole-8-carboxylic acid]: the IC50 in data set [1] (Homo sapiens, SU-DHL-5, 72 h) amounted to 2.5e-07 M; in data set [2] (72 h), 1.7e-06 M; in data set [3] (Homo sapiens, AMO1, 72 h), 6.8e-07 M; in data set [5] (setting [8]), 5.3e-07 M; in data set [6] (setting [9]), 3.4e-07 M. In data set [4] (Homo sapiens, SU-DHL10, 3 h), this compound yielded a half-maximal effective concentration (EC50) of 0.44 µM.

Consider `CCc1c2c(nn1C)COCC1(CCn3c(C(=O)O)c(CCCOc4cccc5cc(F)ccc45)c4ccc(Cl)c-2c43)CC1` (racemic) [Example 109, (rac)-4′-chloro-3′-ethyl-7′-{3-[(6-fluoronaphthalen-1-yl)oxy]propyl}-2′-methyl-2′,10′,11′,15′-tetrahydro-13′H-spiro[cyclopropane-1,12′-pyrazolo[4′,3′:9,10][1,6]oxazacycloundecino[8,7,6-hi]indole]-8′-carboxylic acid], for which the IC50 in data set [1] (Homo sapiens, SU-DHL-5, 72 h) amounted to 5.5e-07 M; in data set [2] (72 h), 4.3e-06 M; in data set [5] (setting [8]), 2.8e-07 M; in data set [6] (setting [9]), 5.9e-07 M. In addition, the half-maximal effective concentration (EC50) in data set [4] (Homo sapiens, SU-DHL10, 3 h) is 0.29 µM; in data set [7] (Homo sapiens, SU-DHL-5, 3 h), 0.44 µM.

As a reminder, the EC50 is the concentration needed to bring the measured effect to its halfway point. Lower therefore signals an effect from little substance.
